According to patent publication US20240150300A1, “S-CONFIGURATION-CONTAINING AMINO BENZAMIDE PYRIDAZINONE COMPOUND, PREPARATION METHOD THEREFOR, AND PHARMACEUTICAL COMPOSITION AND APPLICATION THEREOF” (SHANGHAI INSTITUTE OF MATERIA MEDICA, CHINESE ACADEMY OF …, priority 2021, published 2024):

Key:
[1] = tested on: Mino; assay: Antiproliferative activity, CCK-8, Mino; format: cell-based; details: Mantle cell lymphoma, read-out: Cytotoxicity (IC50 μM)
Description: (§1) The tumor cells used were purchased from commercial cell banks (HCT116 purchased from ATCC, SKM 1 purchased from JCRB). The growth inhibition of cells was detected using the CCK-8 method. The specific steps were as follows. Cells in the logarithmic growth phase were seeded into a 96 well culture plate at an appropriate density, with 90 μL/well. After overnight cultivation, different concentrations of drugs were added for treatment for 72 h, with each concentration in triplicate, and corresponding concentration of vehicle control and cell-free blank wells were also set. After the treatment, 10 μL of CCK-8 was added to each well and the plate was incubated in an incubator for 2-4 hours, and the optical density (OD value) at a wavelength of 450 nm was measured using a SpectraMax 190 microplate reader. […] The experiment was repeated twice, and the mean value and SD were calculated.
(§2) The testing method for antiproliferative activity was the same as that mentioned in Pharmacological Experiment Example 2, and the results are shown in Table 4 and FIGS. 2-3.

[2] = tested on: HDLM-2; assay: Antiproliferative activity, CCK-8, HDLM-2; format: cell-based; details: HDLM-2, Hodgkin's lymphoma; read-out: Cytotoxicity (IC50 μM)
Description: as §1, §2

[3] = tested on: NCI-H929; assay: Antiproliferative activity, CCK-8, NCI-H929; format: cell-based; details: NCI-H929, Human multiple myeloma; read-out: Cytotoxicity (IC50 μM)
Description: as §1, §2

[4] = tested on: OCI-LY-3; assay: Antiproliferative activity, CCK-8, OCI-LY-3; format: cell-based; details: OCI-LY-3, Diffuse large B-cell lymphoma; read-out: Cytotoxicity (IC50 μM)
Description: as §1, §2

[5] = tested on: VMM5A; assay: Antiproliferative activity, CCK-8, VMM5A; format: cell-based; details: Melanoma, read-out: Cytotoxicity (IC50 μM)
Description: as §1, §2

[6] = tested on: CMK; assay: Antiproliferative activity, CCK-8, CMK; format: cell-based; details: Down syndrome acute megakaryocyte leukemia, read-out: Cytotoxicity (IC50 μM)
Description: as §1, §2

[7] = tested on: EoL-1; assay: Antiproliferative activity, CCK-8, EoL-1; format: cell-based; details: EoL-1, Chronic eosinophilic leukemia; read-out: Cytotoxicity (IC50 μM)
Description: as §1, §2

[8] = tested on: human myelodysplastic syndrome cells SKM-1 transplanted tumor; assay: SKM-1 NOD/SCID mice transplanted tumor model; format: in vivo; details: oral 60 mg/kg qd, 18 days
[9] = target: HDAC8 (Homo sapiens (Human), UniProt Q9BY41); assay: HDAC subtype inhibitory activity (HTRF), HDAC8; format: biochemical
Sequence of HDAC8 (Q9BY41 whole entry): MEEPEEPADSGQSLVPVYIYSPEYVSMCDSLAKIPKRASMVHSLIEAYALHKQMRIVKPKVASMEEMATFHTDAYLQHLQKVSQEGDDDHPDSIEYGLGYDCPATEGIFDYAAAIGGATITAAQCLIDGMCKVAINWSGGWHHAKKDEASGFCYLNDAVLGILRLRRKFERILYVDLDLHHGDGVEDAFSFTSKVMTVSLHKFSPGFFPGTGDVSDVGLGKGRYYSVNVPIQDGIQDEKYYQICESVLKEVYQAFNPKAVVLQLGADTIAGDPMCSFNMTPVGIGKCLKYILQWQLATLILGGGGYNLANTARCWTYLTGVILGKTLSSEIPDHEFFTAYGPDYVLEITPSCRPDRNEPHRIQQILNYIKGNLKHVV
Description: (§3) Human recombinant HDAC family proteins with His and GST tags were expressed using insect baculovirus expression system, and a biologically active HDAC family recombinant protein was obtained through Ni affinity column protein purification. HTRF detection method was used with H3(1-21) K9Ac biotin as the substrate. […] Briefly, 20 μl of the activity testing system included the HDAC substrate (0.2 μM. 4 μl), the Human Recombinant Protein HDAC (2-5 ng)/μl.

[10] = tested on: VMM39; assay: Antiproliferative activity, CCK-8, VMM39; format: cell-based; details: VMM39, Melanoma; read-out: Cytotoxicity (IC50 μM)
Description: as §1, §2

[11] = tested on: REC-1; assay: Antiproliferative activity, CCK-8, REC-1; format: cell-based; details: REC-1, Human mantle cell lymphoma; read-out: Cytotoxicity (IC50 μM)
Description: as §1, §2

[12] = tested on: OPM-2; assay: Antiproliferative activity, CCK-8, OPM-2; format: cell-based; details: OPM-2, Human multiple myeloid leukemia; read-out: Cytotoxicity (IC50 μM)
Description: as §1, §2

[13] = tested on: A2058; assay: Antiproliferative activity, CCK-8, A2058; format: cell-based; details: A2058, Melanoma; read-out: Cytotoxicity (IC50 μM)
Description: as §1, §2

[14] = tested on: SU-DHL-6; assay: Antiproliferative activity, CCK-8, SU-DHL-6; format: cell-based; details: SU-DHL-6, Diffuse large B-cell lymphoma; read-out: Cytotoxicity (IC50 μM)
Description: as §1, §2

[15] = tested on: MOLP-8; assay: Antiproliferative activity, CCK-8, MOLP-8; format: cell-based; details: MOLP-8, Human multiple myeloma; read-out: Cytotoxicity (IC50 μM)
Description: as §1, §2

[16] = tested on: SK-MEL-2; assay: Antiproliferative activity, CCK-8, SK-MEL-2; format: cell-based; details: SK-MEL-2, Melanoma; read-out: Cytotoxicity (IC50 μM)
Description: as §1, §2

[17] = tested on: KARPAS-1106P; assay: Antiproliferative activity, CCK-8, KARPAS-1106P; format: cell-based; details: Primary mediastinal large B-cell lymphoma, read-out: Cytotoxicity (IC50 μM)
Description: as §1, §2

[18] = tested on: WILL-2; assay: Antiproliferative activity, CCK-8, WILL-2; format: cell-based; details: WILL-2, Diffuse large B-cell lymphoma; read-out: Cytotoxicity (IC50 μM)
Description: as §1, §2

[19] = tested on: RL; assay: Antiproliferative activity, CCK-8, RL; format: cell-based; details: Diffuse large B-cell lymphoma, read-out: Cytotoxicity (IC50 μM)
Description: as §1, §2

[20] = target: HDAC1 (Homo sapiens (Human), UniProt Q13547); assay: In vitro histone deacetylase activity assay (HTRF), HDAC1; format: biochemical; details: H3(1-21) K9Ac biotin substrate
Sequence of HDAC1 (Q13547 whole entry): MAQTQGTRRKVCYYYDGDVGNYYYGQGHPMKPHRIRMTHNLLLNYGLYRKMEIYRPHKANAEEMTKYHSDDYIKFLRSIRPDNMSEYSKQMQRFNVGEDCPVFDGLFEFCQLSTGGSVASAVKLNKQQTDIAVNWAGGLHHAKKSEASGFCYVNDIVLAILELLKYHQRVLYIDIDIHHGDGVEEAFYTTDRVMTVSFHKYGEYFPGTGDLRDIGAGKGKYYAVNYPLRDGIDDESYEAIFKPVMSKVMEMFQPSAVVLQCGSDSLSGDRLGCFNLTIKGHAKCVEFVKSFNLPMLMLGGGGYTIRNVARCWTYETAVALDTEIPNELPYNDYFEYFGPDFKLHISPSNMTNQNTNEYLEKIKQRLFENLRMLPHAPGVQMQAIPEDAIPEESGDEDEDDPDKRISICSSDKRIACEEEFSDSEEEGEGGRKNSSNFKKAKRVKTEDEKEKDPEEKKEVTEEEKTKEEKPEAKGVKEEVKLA
Description: as §3

[21] = target: HDAC10 (Homo sapiens (Human), UniProt Q969S8); assay: HDAC subtype inhibitory activity (HTRF), HDAC10; format: biochemical
Sequence of HDAC10 (Q969S8 whole entry): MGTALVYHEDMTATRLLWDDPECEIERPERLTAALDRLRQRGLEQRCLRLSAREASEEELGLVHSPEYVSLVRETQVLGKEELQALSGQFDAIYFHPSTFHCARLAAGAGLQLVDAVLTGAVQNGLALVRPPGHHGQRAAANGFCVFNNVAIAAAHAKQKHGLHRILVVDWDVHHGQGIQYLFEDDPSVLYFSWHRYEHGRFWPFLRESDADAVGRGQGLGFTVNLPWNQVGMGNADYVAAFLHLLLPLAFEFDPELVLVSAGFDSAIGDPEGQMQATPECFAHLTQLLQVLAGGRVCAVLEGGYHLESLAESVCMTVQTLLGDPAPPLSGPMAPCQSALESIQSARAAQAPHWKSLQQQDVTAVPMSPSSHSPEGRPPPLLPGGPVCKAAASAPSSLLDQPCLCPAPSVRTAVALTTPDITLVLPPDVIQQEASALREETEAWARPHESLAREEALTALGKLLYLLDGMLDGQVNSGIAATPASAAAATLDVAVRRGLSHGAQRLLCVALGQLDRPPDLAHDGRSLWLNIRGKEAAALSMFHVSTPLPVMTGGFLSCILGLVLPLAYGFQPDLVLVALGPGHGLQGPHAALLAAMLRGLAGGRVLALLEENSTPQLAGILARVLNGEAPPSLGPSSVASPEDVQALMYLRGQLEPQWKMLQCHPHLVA
Description: as §3

[22] = tested on: KG-1; assay: Antiproliferative activity, CCK-8, KG-1; format: cell-based; details: KG-1, Acute myeloid leukemia; read-out: Cytotoxicity (IC50 μM)
Description: as §1, §2

[23] = tested on: WILL-1; assay: Antiproliferative activity, CCK-8, WILL-1; format: cell-based; details: WILL-1, Diffuse large B-cell lymphoma; read-out: Cytotoxicity (IC50 μM)
Description: as §1, §2

[24] = tested on: U-2932; assay: Antiproliferative activity, CCK-8, U-2932; format: cell-based; details: U-2932, Diffuse large B-cell lymphoma; read-out: Cytotoxicity (IC50 μM)
Description: as §1, §2

[25] = tested on: RS4; 11; assay: Antiproliferative activity, CCK-8, RS4; 11; format: cell-based; details: 11, Acute lymphoblastic leukemia, read-out: Cytotoxicity (IC50 μM)
Description: as §1, §2

[26] = tested on: MDA-MB-453; assay: Antiproliferative activity, CCK-8, MDA-MB-453; format: cell-based; details: MDA-MB-453, Breast cancer; read-out: Cytotoxicity (IC50 μM)
Description: as §1, §2

[27] = tested on: HCT-116 cells; assay: Antiproliferative activity, CCK-8, HCT-116; format: cell-based, human; details: 72 h
Description: as §1

[28] = tested on: CCRF-CEM; assay: Antiproliferative activity, CCK-8, CCRF-CEM; format: cell-based; details: T-cell acute lymphoblastic leukemia, read-out: Cytotoxicity (IC50 μM)
Description: as §1, §2

[29] = tested on: HH; assay: Antiproliferative activity, CCK-8, HH; format: cell-based; details: Primary cutaneous T-cell non Hodgkin lymphoma, read-out: Cytotoxicity (IC50 μM)
Description: as §1, §2

[30] = tested on: K-562; assay: Antiproliferative activity, CCK-8, K-562; format: cell-based; details: K-562, Chronic myeloid leukemia; read-out: Cytotoxicity (IC50 μM)
Description: as §1, §2

Q: For `C[C@@H](c1ccc(C(=O)Nc2ccc(F)cc2N)cc1)n1nc(-c2ccc(CN(C)C)cc2)ccc1=O` [Compound I-1], which IC50 [1] is on record?
A: The IC50 was 0.142 ± 0.013 µM.

Q: What about the IC50 [2] of the same compound?
A: The IC50 was 0.647 ± 0.404 µM.

Q: And the IC50 [3]?
A: Its IC50 is 0.642 ± 0.025 µM.

Q: And the IC50 [4]?
A: The IC50 was 0.198 ± 0.048 µM.

Q: And the IC50 [5]?
A: The IC50 was 0.856 ± 0.018 µM.

Q: What about the IC50 [6] of the same compound?
A: Its IC50 is 0.131 ± 0.011 µM.

Q: And the IC50 [7]?
A: Its IC50 is 0.158 µM.

Q: What about the “relative tumor proliferation rate (T/C)” value [8] of the same compound?
A: Its value is 11.78%.

Q: What about the IC50 [9] of the same compound?
A: Its IC50 is over 100 µM.

Q: What about the IC50 [10] of the same compound?
A: The IC50 was 0.46 ± 0.032 µM.

Q: What about the IC50 [11] of the same compound?
A: The IC50 was 0.381 µM.

Q: And the IC50 [12]?
A: The IC50 was 0.436 ± 0.222 µM.

Q: And the IC50 [13]?
A: The IC50 was 0.562 ± 0.011 µM.

Q: And the IC50 [14]?
A: Its IC50 is 0.576 ± 0.066 µM.

Q: And the IC50 [15]?
A: The IC50 was 0.632 ± 0.066 µM.

Q: What about the IC50 [16] of the same compound?
A: Its IC50 is 0.799 ± 0.042 µM.

Q: What about the IC50 [17] of the same compound?
A: The IC50 was 0.498 ± 0.009 µM.

Q: And the IC50 [18]?
A: The IC50 was 0.347 ± 0.217 µM.

Q: What about the IC50 [19] of the same compound?
A: The IC50 was 0.24 ± 0.019 µM.

Q: And the IC50 [20]?
A: The IC50 was 57.6 ± 4.42 nM.

Q: What about the IC50 [21] of the same compound?
A: Its IC50 is over 100 µM.

Q: And the IC50 [22]?
A: Its IC50 is 0.95 ± 0.066 µM.

Q: And the IC50 [23]?
A: The IC50 was 0.116 ± 0.006 µM.

Q: And the IC50 [24]?
A: Its IC50 is 0.214 ± 0.001 µM.

Q: And the IC50 [25]?
A: The IC50 was 0.412 ± 0.129 µM.

Q: And the IC50 [26]?
A: Its IC50 is 0.498 ± 0.036 µM.

Q: What about the IC50 [27] of the same compound?
A: Its IC50 is 220 ± 4 nM.

Q: And the IC50 [28]?
A: The IC50 was 0.382 ± 0.067 µM.

Q: And the IC50 [29]?
A: Its IC50 is 0.219 ± 0.093 µM.

Q: And the IC50 [30]?
A: Its IC50 is 0.473 ± 0.171 µM.
